Measured values from PMC10204490, “Incubation Time Influences Organic Anion Transporter 1 Kinetics and Renal Clearance Predictions” (Journal of Xenobiotics, 2023).
One block for each compound: values may come before it.

Key:
[1] = biological target: T1, OAT1 (Homo sapiens, UniProt Q4U2R8); experiment: Inhibition of [3H]PAH uptake into CHO-OAT1 cells (IC50 determination); settings: IC50 for inhibition of [3H]PAH uptake, [3H]PAH 20 nM, mean ± SEM, n=4
T1 sequence (Q4U2R8 1-563): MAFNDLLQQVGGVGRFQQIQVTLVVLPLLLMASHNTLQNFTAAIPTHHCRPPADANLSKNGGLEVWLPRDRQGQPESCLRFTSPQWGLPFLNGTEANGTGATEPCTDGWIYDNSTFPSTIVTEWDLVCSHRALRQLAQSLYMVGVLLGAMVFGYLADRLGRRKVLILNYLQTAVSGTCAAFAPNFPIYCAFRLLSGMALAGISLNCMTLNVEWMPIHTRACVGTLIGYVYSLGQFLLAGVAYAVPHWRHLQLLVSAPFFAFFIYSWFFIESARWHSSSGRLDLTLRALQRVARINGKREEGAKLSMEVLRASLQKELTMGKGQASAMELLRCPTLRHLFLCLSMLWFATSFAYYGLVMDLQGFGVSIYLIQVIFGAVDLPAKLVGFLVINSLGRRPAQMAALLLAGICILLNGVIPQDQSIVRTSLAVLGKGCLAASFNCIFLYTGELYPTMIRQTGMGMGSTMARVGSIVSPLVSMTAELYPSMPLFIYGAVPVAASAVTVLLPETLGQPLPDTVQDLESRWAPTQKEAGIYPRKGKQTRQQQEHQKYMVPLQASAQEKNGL
Protocol: All cells were grown to confluence in 24-well flat bottom plates for transport experiments.
Transport experiments involved aspirating the media, rinsing the cells quickly once with WB (0.4 mL), and then adding the transport solution (0.4 mL) to the wells for an amount of time as indicated in the figure legends. Uptake was stopped by aspirating the transport buffer and rinsing the wells three times with ice-cold WB (0.4 mL). The cells were lysed in 0.5 N NaOH/1% sodium dodecyl sulfate (0.4 mL) for 30 min on an orbital shaker and the lysates neutralized with 1 N HCl (0.2 mL). […] Several wells not used for transport were used for determining the number of cells per well with a hemocytometer.
As above, transport inhibition experiments involved aspirating the media, rinsing the cells quickly once with WB (0.4 mL), and then adding the transport solution (0.4 mL) to the wells for an amount of time as indicated in the figure legends.
[I] is the concentration of inhibitor in the transport solution. […] Japp is the apparent maximal transport rate, and C has the same meaning as noted above.

[2] = tested on: OAT1; settings: cited from earlier work
[3] = cited from earlier work
[4] = parameters: method as in earlier work; settings: cited from earlier work
[5] = parameters: method as in earlier work; settings: measured; cited from earlier work
[6] = biological target: T1, OAT1; experiment: Telmisartan pre-incubation and washout recovery of [3H]PAH uptake in CHO-OAT1 cells

- IC50 ([1]; 15 sec incubation): 9.7 ± 0.8 µM
- IC50 ([1]; 10 min incubation): 9.2 ± 0.8 µM
Structure (SMILES): COc1ccc2[nH]c([S+]([O-])Cc3ncc(C)c(OC)c3C)nc2c1 (stereo not shown) [Omeprazole, omeprazole]
- Inhibition mechanism at OAT1 [2]: mixed-type

Structure (SMILES): COc1ccc2c(c1)c(CC(=O)O)c(C)n2C(=O)c1ccc(Cl)cc1 [Indomethacin, indomethacin]
- Inhibition mechanism at OAT1 [2]: competitive

Structure (SMILES): Nc1ccc(C(=O)NCC(=O)O)cc1 [PAH, Para-aminohippurate]
- Clinically-observed plasma clearance (CLi.v.) ([3]; 10 mg ∙ kg-1 intravenous dose): 40.6 L/h
- Observed Vss [3]: 0.23 L/kg
- Percentage of the dose excreted into the urine as acetyl-PAH [3]: ~ 10%
- Reduction in plasma clearance of PAH by co-administered probenecid ([3]; human subjects, probenecid 1 g oral dose): 1.8 fold
- LogP [4]: -2.2
- pKa [4]: 3.83
- Fraction unbound in plasma (fup) [5]: 0.83

- IC50 ([1]; 15 sec incubation): 0.4 ± 0.07 µM
- IC50 ([1]; 10 min incubation): 0.06 ± 0.02 µM
- Reversibility of OAT1 inhibition after washout ([6]; 30 min pre-treatment with telmisartan 0.5 µM, washout in WB with 10% FBS, single experiment): reversible, albeit slowly
Structure (SMILES): CCCc1nc2c(C)cc(-c3nc4ccccc4n3C)cc2n1Cc1ccc(-c2ccccc2C(=O)O)cc1 [Telmisartan, telmisartan]
- Effect of pre-incubation time on OAT1 transport activity ([6]; telmisartan 10, 50, 100 or 200 nM, pre-incubation 1, 5, 10 or 30 min, [3H]PAH uptake 15 s): decreased with increasing pre-incubation times
- Inhibition mechanism at OAT1 [2]: non-competitive
